According to patent US8703172B2, “Sphingolipids for improvement of the composition of the intestinal flora” (Nederlandse Organizatie voor …, priority 2003, dated 2014):
Values after ≈ are worked out from the molar mass of the structure shown. “Also recorded” adds a separate entry of the source.

What was measured:
Salmonella enteritidis = assay: MIC on agar plates (TSA); type: cell-based; conditions: TSA agar plate, aerobic, 48 hours at 30° C.
Pseudomonas aeruginosa = assay: MIC on agar plates (TSA); type: cell-based; conditions: TSA agar plate, aerobic, 48 hours at 30° C.
[1] = tested on: Bifidobacterium adolescentis; assay: MIC on agar plates (RCBA); type: cell-based; conditions: RCBA agar plate, anaerobic, 72 hours at 30° C.
Bifidobacterium spp. = assay: MIC on agar plates (RCBA); type: cell-based; conditions: RCBA agar plate, anaerobic, 72 hours at 30° C.
Fusobacterium nucleatum = assay: MIC on agar plates (RCBA); type: cell-based; conditions: RCBA agar plate, anaerobic, 72 hours at 30° C.
Bacteroides fragilis = assay: MIC on agar plates (RCBA); type: cell-based; conditions: RCBA agar plate, anaerobic, 72 hours at 30° C.
Clostridium perfringens = assay: microbe, parasite or virus in culture; type: cell-based; conditions: 72 h, read-out: MIC, C. perfringens
Clostridium difficile [2] = assay: MIC on agar plates (RCBA); type: cell-based; conditions: Clostridioides difficile; RCBA agar plate, anaerobic, 72 hours at 30° C.
Clostridium spp. = assay: MIC on agar plates (RCBA); type: cell-based
Gram-positive bacteria = assay: Antimicrobial activity on agar plates, summary for Gram-positive bacteria; type: cell-based
Clostridium difficile [3] = assay: Survival in liquid ileum medium; type: cell-based; conditions: within 200 minutes
[4] = tested on: Lactobacillus acidophilus; assay: Antimicrobial activity in small intestine model TIM-1; type: cell-based; conditions: 20 μg/ml of sphingolipid; lumen samples plated on Rogosa agar
Clostridium difficile [5] = assay: as above; type: cell-based; conditions: 20 μg/ml of sphingolipid; lumen samples plated on Clostridium difficile agar
[6] = type: in vitro ADME
Method: (§1) Because the sphingolipids need to be transported together with the food to the small and large intestines to be able to be active there, the transport of phytosphingosine and sphinganine in the stomach and small intestine model TIM-1 was tested. Also, the transport of phytosphingosine in a fistulated pig was tested after the animal had been fed with feed containing phytosphingosine (1 wt. %). In a fistulated pig, the small intestine is uncoupled from the large intestine so that the digested feed at the end of the small intestine can be collected.
To investigate whether sphingolipids from the food are transported through the small intestine without being absorbed or being chemically or enzymatically modified in the small intestine, phytosphingosine and sphinganine were mixed in a standard Tim-1 food and exposed to a TIM-1 treatment. Of each sphingolipid, 5 mg per 100 grams of food (0.005 wt. %) in the food were tested. After starting the TIM-1 digestion processes in the TIM-1 stomach, at the fixed times, lumen samples of 100 grams were taken. Also, dialysate samples were taken from the material which was transported through the semi-permeable TIM-1 membrane. The dialysate samples varied between 1428 and 1122 grams. […] Next to the samples, the exposure time in minutes is given.

[7] = in vivo
Method: as §1
To investigate in an in vivo system whether sphingolipids from the food do actually arrive in the large intestine and are not prematurely absorbed or metabolized, pig basic feed to which phytosphingosine (1 wt. %) was added was fed to a fistulated pig.
The feed was prepared by mixing a solution of phytosphingosine in ethanol with the feed and drying it in vacuo. Every hour, the intestinal content (chymus) at the end of the small intestine was separately collected and frozen dry. The dry intestinal contents were then extracted with chloroform/methanol (2:1, v/v). The extracts were then filtered over glass wool and evaporated under a nitrogen flow. The residues were examined for the presence of phytosphingosine, sphingosine, sphinganine and sphingomyelin by means of LC-MS.

Clostridium difficile [8] = assay: Antimicrobial activity in TIM-2 large intestine model; type: cell-based
Bifidobacterium = assay: as above; type: cell-based
Bacteroides = assay: as above; type: cell-based
Enterococcus = assay: as above; type: cell-based
Lactobacillus = assay: as above; type: cell-based
Enterobacteriaceae = assay: as above; type: cell-based
Listeria monocytogenes = assay: MIC on agar plates (TSA)
[9] = tested on: Streptococcus suis type 2; assay: MIC on agar plates (TSA)
Bacillus cereus = assay: MIC on agar plates (TSA)
Leuconostoc carnosum = assay: MIC on agar plates (MRSA)
Lactobacillus sake = assay: MIC on agar plates (MRSA)
[10] = tested on: Lactobacillus acidophilus; assay: MIC on agar plates (MRSA)
Lactobacillus casei = assay: MIC on agar plates (MRSA)
Enterococcus hirae = assay: MIC on agar plates (MRSA)
[11] = tested on: Lactobacillus acidophilus; assay: Survival in liquid ileum medium; conditions: within 200 minutes
[12] = tested on: sulfite-reducing Clostridium; assay: Antimicrobial activity in TIM-2 large intestine model
bacteria tested = assay: Antimicrobial activity on agar plates, summary for the bacteria tested; type: cell-based; conditions: agar plates
[13] = rat, in vivo; cited from earlier work
[14] = ileum medium, absence of bile, 10 and 50 μg/ml
[15] = 60 min, 5 mg per 100 grams of food
[16] = 120 min, 5 mg per 100 grams of food
[17] = 180 min, 5 mg per 100 grams of food
[18] = 240 min, 5 mg per 100 grams of food
[19] = TSA agar plate, aerobic, 48 hours at 30° C.
[20] = MRSA agar plate, anaerobic, 72 hours at 30° C.

CCCCCCCCCCCCCC[C@@H](O)[C@@H](O)[C@@H](N)CO [Phytosphingosine, phytosphingosine]
MIC (Salmonella enteritidis; Salmonella enterica, ENTERITIDIS, read-out: MIC, S. enteritidis): > 731 mg/L
MIC (Pseudomonas aeruginosa; Pseudomonas aeruginosa, read-out: MIC, P. aeruginosa): > 731 mg/L
MIC ([1]; Bifidobacterium adolescentis, read-out: MIC, B. adolescentis): 8 mg/L (≈ 25.2 µM)
MIC (Bifidobacterium spp.; Bifidobacterium, read-out: MIC, Bif. spp.): 0.9 mg/L (≈ 2.83 µM)
MIC (Fusobacterium nucleatum; Fusobacterium nucleatum, read-out: MIC, F. nucleatum): < 6.3 mg/L
MIC (Bacteroides fragilis; Bacteroides fragilis, read-out: MIC, B. fragilis): 2.1 mg/L (≈ 6.61 µM)
MIC (Clostridium perfringens): 5.9 mg/L (≈ 18.6 µM)
MIC (Clostridium difficile [2]): 5.7 mg/L (≈ 18 µM)
MIC (Clostridium spp.; Clostridium, 72 h, read-out: MIC, C. spp.): 1.1 mg/L (≈ 3.46 µM)
Antimicrobial activity against Gram-positive bacteria (Gram-positive bacteria): killed; also recorded: strong antimicrobial activity
Killing of Clostridium difficile (Clostridium difficile [3]; [14]): virtually completely killed
Killing of Clostridium difficile (Clostridium difficile [3]; liquid cultures, 50 ppm): for the larger part killed
Antimicrobial activity against Lactobacillus acidophilus in TIM-1 [4]: no demonstrable antimicrobial activity
Antimicrobial activity against Clostridium difficile in TIM-1 (Clostridium difficile [5]): no demonstrable antimicrobial activity
Transport through the TIM-1 system [6]: transported to the large intestine to a sufficient extent
Concentration in TIM-1 sample: Dialysate ileum 0-120′ ([6]; 5 mg per 100 grams of food): 0 µg/mL
Concentration in TIM-1 sample: Dialysate ileum 120-240′ ([6]; 5 mg per 100 grams of food): 0 µg/mL
Concentration in TIM-1 sample: Dialysate jejunum 0-120′ ([6]; 5 mg per 100 grams of food): 0 µg/mL
Concentration in TIM-1 sample: Dialysate jejunum 120-240′ ([6]; 5 mg per 100 grams of food): 0 µg/mL
Concentration in TIM-1 sample: Food ([6]; 5 mg per 100 grams of food): 5.19 µg/mL
Concentration in TIM-1 sample: Residue jejunum/ileum + dialysis fluid ([6]; 5 mg per 100 grams of food): 3.32 µg/mL
Concentration in TIM-1 sample: Residue stomach/duodenum + dialysis fluid ([6]; 5 mg per 100 grams of food): 1.03 µg/mL
Share of the amount used found in the samples (rough mass balance) ([6]; 5 mg per 100 grams of food): approx. 20%
Concentration in TIM-1 sample: Lumen ileum 60′ [6, 15]: 0.20 µg/mL
Concentration in TIM-1 sample: Lumen jejunum 60′ [6, 15]: 1.47 µg/mL
Concentration in TIM-1 sample: Lumen ileum 120′ [6, 16]: 2.23 µg/mL
Concentration in TIM-1 sample: Lumen jejunum 120′ [6, 16]: 1.79 µg/mL
Concentration in TIM-1 sample: Lumen ileum 180′ [6, 17]: 2.22 µg/mL
Concentration in TIM-1 sample: Lumen jejunum 180′ [6, 17]: 3.41 µg/mL
Concentration in TIM-1 sample: Lumen ileum 240′ [6, 18]: 1.96 µg/mL
Concentration in TIM-1 sample: Lumen jejunum 240′ [6, 18]: 4.10 µg/mL
Health of the pig [7]: remained healthy
Maximum phytosphingosine in intestinal contents at the end of the small intestine ([7]; pig): 76 μg/g of dry intestinal contents
Time from which phytosphingosine leaves the small intestine ([7]; pig): from two hours after feeding
Time of the maximum after feeding ([7]; pig): 9 h
Killing of C. difficile (Clostridium difficile [8]; TIM-2, 10 μg/ml): no significant killing
Decrease of C. difficile (Clostridium difficile [8]; TIM-2, 50 μg/ml, within 12 hours): 550 fold
Selectivity of antimicrobial activity against Clostridium difficile (Clostridium difficile [8]; TIM-2 large intestine model): selective antimicrobial activity
Killing of other bacteria: Bifidobacterium (Bifidobacterium; 10 μg/ml): no significant killing
Bifidobacterium decreases by a factor of (Bifidobacterium; 50 μg/ml): 55
Killing of other bacteria: Bacteroides (Bacteroides; 10 μg/ml): no significant killing
Bacteroides decreases by a factor of (Bacteroides; 50 μg/ml): 10
Killing of other bacteria: Enterococcus (Enterococcus; 10 μg/ml): no significant killing
Enterococcus decreases by a factor of (Enterococcus; 50 μg/ml): 5
Killing of other bacteria: Lactobacillus (Lactobacillus; 10 μg/ml): no significant killing
Lactobacillus decreases by a factor of (Lactobacillus; 50 μg/ml): 24
Killing of other bacteria: Enterobacteriaceae (Enterobacteriaceae; 10 μg/ml): no significant killing
Enterobacteriaceae decrease by a factor of (Enterobacteriaceae; 50 μg/ml): 77
MIC (Listeria monocytogenes; Listeria monocytogenes, 48 h, read-out: MIC, L. monocytogenes): 6.3 mg/L (≈ 19.8 µM)
MIC ([9]; Streptococcus suis, TYPE2, 48 h, read-out: MIC, S. suis type 2): 6.3 mg/L (≈ 19.8 µM)
MIC (Bacillus cereus; Bacillus cereus, 48 h, read-out: MIC, B. cereus): 6.3 mg/L (≈ 19.8 µM)
MIC (Leuconostoc carnosum; 72 h, read-out: MIC, L. carnosum): < 0.3 mg/L
MIC (Lactobacillus sake; Latilactobacillus sakei, 72 h, read-out: MIC, L. sake): 2.2 mg/L (≈ 6.93 µM)
MIC ([10]; Lactobacillus acidophilus, 72 h, read-out: MIC, L. acidophilus): > 36.5 mg/L
MIC (Lactobacillus casei; Lacticaseibacillus casei, 72 h, read-out: MIC, L. casei): > 36.5 mg/L
MIC (Enterococcus hirae; Enterococcus hirae, 72 h, read-out: MIC, E. hirae): > 36.5 mg/L
Killing of Lactobacillus acidophilus [11, 14]: virtually completely killed
Killing of Lactobacillus acidophilus ([11]; liquid cultures, 50 ppm): for the larger part killed
Killing of other bacteria: sulfite-reducing clostridia ([12]; 10 μg/ml): no significant killing
Sulfite-reducing Clostridium decreases by a factor of ([12]; 50 μg/ml): 36

sphingomyelin
MIC, S. enteritidis (Salmonella enteritidis): >731 mg/L
MIC, P. aeruginosa (Pseudomonas aeruginosa): >731 mg/L
MIC, B. adolescentis [1]: >731 mg/L
MIC, Bif. spp. (Bifidobacterium spp.): >731 mg/L
MIC, F. nucleatum (Fusobacterium nucleatum): >731 mg/L
MIC, B. fragilis (Bacteroides fragilis): >731 mg/L
MIC, C. spp. (Clostridium spp.; RCBA agar plate, anaerobic, 72 hours at 30° C.): >731 mg/L
Inhibition of the bacteria tested (bacteria tested): do not inhibit any of the bacteria tested
Presence in the intestinal contents at the end of the small intestine ([7]; pig): larger amounts
Share of the sphingomyelin fed that is found in the feces [13]: approximately 25%
MIC, L. monocytogenes (Listeria monocytogenes; [19]): >731 mg/L
MIC, S. suis type 2 [9, 19]: >731 mg/L
MIC, B. cereus (Bacillus cereus; [19]): >731 mg/L
MIC, L. carnosum (Leuconostoc carnosum; agar plate, anaerobic, 72 hours at 30° C.): >731 mg/L
MIC, L. sake (Lactobacillus sake; anaerobic, 72 hours at 30° C.): >731 mg/L
MIC, L. acidophilus ([10]; anaerobic, 72 hours at 30° C.): >731 mg/L
MIC, L. casei (Lactobacillus casei; [20]): >731 mg/L
MIC, E. hirae (Enterococcus hirae; [20]): >731 mg/L
